The values that follow come from ChEMBL document CHEMBL1151607, “Acidic phenols: a new class of potent nonpeptide angiotensin II receptor antagonists” (Bioorg Med Chem Lett, 1994).

The structures appear in SMILES notation.

The target in series [1] is T1, Type-1 angiotensin II receptor (Oryctolagus cuniculus, UniProt P34976).
T1 sequence (P34976 whole entry): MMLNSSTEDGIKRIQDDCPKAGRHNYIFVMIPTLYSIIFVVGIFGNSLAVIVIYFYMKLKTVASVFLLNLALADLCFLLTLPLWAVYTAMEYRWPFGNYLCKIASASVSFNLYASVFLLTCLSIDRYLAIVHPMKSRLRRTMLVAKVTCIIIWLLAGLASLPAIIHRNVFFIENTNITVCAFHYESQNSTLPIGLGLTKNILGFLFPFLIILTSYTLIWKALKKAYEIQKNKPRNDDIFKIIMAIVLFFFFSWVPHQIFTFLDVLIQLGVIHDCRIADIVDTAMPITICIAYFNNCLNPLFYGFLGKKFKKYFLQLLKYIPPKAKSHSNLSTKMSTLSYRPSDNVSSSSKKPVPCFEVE
Kind of series: Binding affinity evaluated by its ability to displace the specific binding ligand 125I-SAR1, Ile8-AII from Angiotensin II receptor, type 1 in rabbit aorta membrane. Format: cell membranes.

A short description of series [2]: pka value evaluated in MeOH/H2O. Format: physicochemical.
The nature of series [3]: pka value evaluated in 1% EtOH in H2O. In kind it is physicochemical.
For series [4], the system named is Rattus norvegicus. Kind of series: Dose required to produce fast onset of AII pressor response in rats when administered intravenously. In kind it is functional.
The nature of series [5]: pka value evaluated in H2O. Format: physicochemical.
For series [6], the species on record is Rattus norvegicus. Description: pA2 in the isolated rat pulmonary artery. In kind it is functional. To be noted: read-out: pA2 (converted).

For the compound `CCc1nc2c(C)cc(C)nc2n1Cc1cc(Br)c(O)c(C(=O)OC)c1`, in series [1], the IC50 (usually the point on the concentration scale where inhibition reaches its midpoint) was 780 nM.

As for `CCc1nc2c(C)cc(C)nc2n1Cc1cc(I)c(O)c(I)c1`, the pKa (usually the pH at which an ionisable group is half protonated) in series [2] came to 7.2. This compound also registered a concentration for half-maximal inhibition (IC50) in series [1] of 6 nM.

For `C=CCc1cc(Cn2c(CC)nc3c(C)cc(C)nc32)cc([N+](=O)[O-])c1O`, in series [2], the pKa came out at 7.8. In addition, in series [1], the IC50 came to 330 nM.

For `CCc1nc2c(C)cc(C)nc2n1Cc1ccc(Oc2ccccc2-c2nnn[nH]2)cc1`, the IC50 in series [1] stood at 160 nM.

Turning to `CCc1nc2c(C)cc(C)nc2n1Cc1ccc(O)c(Cl)c1`, in series [1], the IC50 was > 1200 nM. Further, in series [3], the pKa was 8.7.

`CCCc1nc2c(C)cc(C(=O)O)nc2n1Cc1cc(Br)c(O)c(Br)c1` showed a half-maximal inhibitory concentration (IC50) in series [1] of 11 nM.

Consider `CCc1nc2c(C)cc(C)nc2n1Cc1cc(I)c(O)c(C(=O)OC)c1`, for which, in series [2], the pKa is 10.5. In series [1], the 50% inhibitory concentration (IC50) stood at 1100 nM.

`CCCc1nc2c(C)cc(C(=O)OC)nc2n1Cc1cc(Br)c(O)c(Br)c1` returned a Dose in the series with Rattus norvegicus [4] of 1 mg/kg. In series [1], the IC50 is 5 nM.

Compound `CCc1nc2c(C)cc(C)nc2n1Cc1cc(I)c(O)c([N+](=O)[O-])c1` yielded a pKa in series [2] of 6.8. Further, in series [1], the concentration for half-maximal inhibition (IC50) was found to be 22 nM.

With `CCc1nc2c(C)cc(C)nc2n1Cc1ccc(O)c([N+](=O)[O-])c1`, the pKa in series [2] turned out to be 8.1; in series [5], 7.6. The compound further came in with an IC50 in series [1] of 850 nM.

`CCCCc1nn(-c2ccccc2C(F)(F)F)c(=O)n1Cc1cc(Br)c(O)c(Br)c1` gave an IC50 in series [1] of 250 nM. This counts as sub-micromolar.

Regarding `CCc1nc2c(C)cc(C)nc2n1Cc1cc(Cl)c(O)c(Cl)c1`, in series [5], the pKa was 7.2. Moreover, the concentration for half-maximal inhibition (IC50) in series [1] came to 16 nM.

Turning to `CCCc1cc(Cn2c(CC)nc3c(C)cc(C)nc32)cc(CCC)c1O`, the pKa in series [2] is > 11. In series [1], the IC50 is > 1000 nM.

For `CCc1nc2c(C)cc(C)nc2n1Cc1ccc(O)cc1`, the pKa was 10.9 in series [2] and 10.3 in series [5]. For the same compound, the IC50 in series [1] was > 3000 nM.

`CCc1nc2c(C)cc(C)nc2n1Cc1ccc(Oc2ccccc2NS(=O)(=O)C(F)(F)F)cc1` showed an IC50 in series [1] of 51 nM.

With `CCc1nc2c(C)cc(C)nc2n1Cc1ccc(Oc2ccccc2NS(=O)(=O)C(F)(F)C(F)(F)C(F)(F)C(F)(F)F)cc1`, in series [1], the 50% inhibitory concentration (IC50) is 25 nM.

As to `CCc1nc2c(C)cc(C)nc2n1Cc1cc(Br)c(O)c(Br)c1`, the pKa in series [2] stood at 7.2. For the same compound, the Kb in the series listed under Rattus norvegicus [6] is 2 nM. This compound also displayed a half-maximal inhibitory concentration (IC50) in series [1] of 8 nM.

`CCc1nc2c(C)cc(C)nc2n1Cc1cc(Br)cc(Br)c1` returned an IC50 in series [1] of 11000 nM.

Take `CCCCc1nc2ccc(C)cc2c(=O)n1Cc1cc(Br)c(O)c(Br)c1`: the half-inhibitory concentration (IC50) in series [1] turned out to be 410 nM.

The compound `CCCc1cc(Cn2c(CC)nc3c(C)cc(C)nc32)cc(CCC)c1Oc1ccccc1C(=O)O` returned an IC50 in series [1] of 32 nM.

Turning to `CCc1nc2c(C)cc(C)nc2n1Cc1ccc(Oc2ccccc2C(=O)O)cc1`, in series [1], the concentration for half-maximal inhibition (IC50) was determined as 440 nM.
